# Source: patent US20240398771A1, “TREATMENT OF SCLERODERMA AND RAYNAUD'S SYNDROME” (Aisa Pharma, Inc., priority 2023, published 2024)
# Tests used:
# [1] = oral dosing; cited from earlier work
# [2] = tested on: participants with SSc-RP; experiment: Average duration of weekly symptomatic RP attacks (minutes); assay type: in vivo, human; conditions: ITT Part A
# Excerpt: The relevant metrics measured by this tool daily are: • Study medication • SSc-RP symptoms (Reporting an attack including duration of attack) • Severity of the attack considering all symptoms of the attack e.g. tingling, numbness, pain, color changes (VAS 0-10 cm scale) • Participant's location at the time of the attack (inside home/outside home) • Selecting symptoms experienced during the attack (tingling, numbness, pain, color changes, other) • Pain rating during the attack (11-point Likert scale) • The RCS based on how much difficulty participants had with Raynaud's today, how many attacks the participant had, and how long they lasted. Participants will also be asked to consider how much pain, numbness, or other symptoms the Raynaud's caused in fingers (including painful sores), and how much the Raynaud's alone affected the use of hands today (VAS 0-10 cm scale).
# The absolute change in average duration of weekly RP attacks from baseline to the end of each dosing period was and will be a secondary outcome variable. The sponsor-developed participant-informed diary was and will be used to record data. Average duration of weekly RP attacks is defined as the total duration of RP attacks divided by total number of RP attacks within the last 7 days of each dosing period. Total duration of RP attacks during the last 7 days of screening period divided by the total number of RP attacks will be used as baseline for the analysis of all periods. The variable will be calculated similar to frequency data as before.
# [3] = Excluding Outliers, Baseline RCS subgroup 2 (second half of Table B-4, stratum not given), last 7 days of dosing period
# [4] = Excluding Outliers, Baseline RCS subgroup 2 (second half of Table B-4, stratum not given), last 7 days of screening period
# [5] = Baseline RCS subgroup 2 (Table B-3, stratum not given), last 7 days of dosing period
# [6] = Baseline RCS subgroup 2 (Table B-3, stratum not given), last 7 days of screening period
structure (smiles),measurement,setting,value
CN1CC(=O)N2[C@H](c3ccc4c(c3)OCO4)c3[nH]c4ccccc4c3C[C@@H]2C1=O [Tadalafil],time to achieve maximal plasma concentrations (Tmax),[1],2 h
same,"Average Duration of weekly symptomatic RP attacks, Max",[2]; [3],"6.0, 6.0 minutes"
same,"Average Duration of weekly symptomatic RP attacks, Mean",[2]; [3],6.00 min
same,"Average Duration of weekly symptomatic RP attacks, Median",[2]; [3],6.00 min
same,"Average Duration of weekly symptomatic RP attacks, Min",[2]; [3],"6.0, 6.0 minutes"
same,"Average Duration of weekly symptomatic RP attacks, Q1",[2]; [3],"6.00, 6.00 minutes"
same,"Average Duration of weekly symptomatic RP attacks, Q3",[2]; [3],"6.00, 6.00 minutes"
same,"Average duration of weekly symptomatic RP attacks, Change from Baseline, Max",[2]; [3],"−4.6, −4.6 minutes"
same,"Average duration of weekly symptomatic RP attacks, Change from Baseline, Mean",[2]; [3],-4.58 min
same,"Average duration of weekly symptomatic RP attacks, Change from Baseline, Min",[2]; [3],"−4.6, −4.6 minutes"
same,"Average duration of weekly symptomatic RP attacks, Change from Baseline, Q3",[2]; [3],"−4.58, −4.58 minutes"
same,"Average duration of weekly symptomatic RP attacks, Percent Change from Baseline, Max",[2]; [3],"−43.3, −43.3%"
same,"Average duration of weekly symptomatic RP attacks, Percent Change from Baseline, Mean",[2]; [3],−43.31%
same,"Average duration of weekly symptomatic RP attacks, Percent Change from Baseline, Min",[2]; [3],"−43.3, −43.3%"
same,"Average duration of weekly symptomatic RP attacks, Percent Change from Baseline, Q3",[2]; [3],"−43.31, −43.31%"
same,"Average duration of weekly symptomatic RP attacks, Baseline, Max",[2]; [4],"10.6, 10.6 minutes"
same,"Average duration of weekly symptomatic RP attacks, Baseline, Mean",[2]; [4],10.58 min
same,"Average duration of weekly symptomatic RP attacks, Baseline, Median",[2]; [4],10.58 min
same,"Average duration of weekly symptomatic RP attacks, Baseline, Min",[2]; [4],"10.6, 10.6 minutes"
same,"Average duration of weekly symptomatic RP attacks, Baseline, Q1",[2]; [4],"10.58, 10.58 minutes"
same,"Average duration of weekly symptomatic RP attacks, Baseline, Q3",[2]; [4],"10.58, 10.58 minutes"
same,Average Duration of weekly symptomatic RP attacks,[2]; [5],6.0 min
same,"Average Duration of weekly symptomatic RP attacks, Max",[2]; [5],818.6 min
same,"Average Duration of weekly symptomatic RP attacks, Q1",[2]; [5],6.00 min
same,"Average Duration of weekly symptomatic RP attacks, Q3",[2]; [5],818.57 min
same,"Average duration of weekly symptomatic RP attacks, Change from Baseline",[2]; [5],-4.6 min
same,"Average duration of weekly symptomatic RP attacks, Change from Baseline, Max",[2]; [5],286.1 min
same,"Average duration of weekly symptomatic RP attacks, Change from Baseline, Q1",[2]; [5],-4.58 min
same,"Average duration of weekly symptomatic RP attacks, Change from Baseline, Q3",[2]; [5],286.07 min
same,"Average duration of weekly symptomatic RP attacks, Percent Change from Baseline, Max",[2]; [5],53.7%
same,"Average duration of weekly symptomatic RP attacks, Percent Change from Baseline, Min",[2]; [5],−43.3%
same,"Average duration of weekly symptomatic RP attacks, Percent Change from Baseline, Q1",[2]; [5],−43.31%
same,"Average duration of weekly symptomatic RP attacks, Percent Change from Baseline, Q3",[2]; [5],53.72%
same,"Average duration of weekly symptomatic RP attacks, Baseline",[2]; [6],10.6 min
same,"Average duration of weekly symptomatic RP attacks, Baseline, Max",[2]; [6],532.5 min
same,"Average duration of weekly symptomatic RP attacks, Baseline, Mean",[2]; [6],271.54 min
same,"Average duration of weekly symptomatic RP attacks, Baseline, Median",[2]; [6],271.54 min
same,"Average duration of weekly symptomatic RP attacks, Baseline, Q1",[2]; [6],10.58 min
same,"Average duration of weekly symptomatic RP attacks, Baseline, Q3",[2]; [6],532.50 min
